pIC50: −log10 of the molar value. Like-named read-outs stand apart in the source and are kept apart here.
Legend:
[1] = molecular target: SARS-CoV-2 MPRO (Severe acute respiratory syndrome coronavirus 2 (2019-nCoV) (SARS-CoV-2), UniProt P0DTD1); test: SARS-CoV-2 Mpro enzymatic assay (FRET substrate cleavage); type: biochemical; details: 30 min pre-incubation at RT, 60 min at 30° C., 10 doses from 25 μM
[2] = system: SARS-CoV-2; test: In vitro antiviral cell-based assay (live SARS-CoV-2), plaque reduction assay in VeroE6 cells; details: Severe acute respiratory syndrome coronavirus 2, Vero C1008, footnote key printed as IC50 (nM)
[3] = C-His6-tagged SARS-CoV-2 MPRO 25 nM, read-out: M pro IC50
[4] = M pro IC50, C-His6-tagged SARS-CoV-2 MPRO 25 nM

SMILES	pIC50 [1, 3]	further results
C[C@](C(=O)NC1CCC(F)(F)CC1)(c1cncnc1)N(C(=O)[C@H](F)Cl)c1ccc(-c2cncs2)cc1 (single isomer, unassigned) [Example 1a]	> 7.00	EC50 [2]: 100 to 1000 nM
C[C@@](C(=O)NC1CCOCC1)(c1cncc(F)c1)N(C(=O)[C@H](F)Cl)c1ccc(OC(F)(F)Cl)cc1 [Example 98b]	5.00 to 6.00	–
C[C@](C(=O)NC1CCC(F)(F)CC1)(c1cncc(F)c1)N(C(=O)[C@H](F)Cl)c1ccc(OC(F)(F)Cl)cc1 [Example 99a]	> 7.00	–
C[C@@](C(=O)NC1CCC(F)(F)CC1)(c1cncc(F)c1)N(C(=O)[C@H](F)Cl)c1ccc(OC(F)(F)Cl)cc1 [Example 99b]	5.00 to 6.00	–
C[C@](C(=O)NC1CCC(F)(F)CC1)(c1cncnc1)N(C(=O)[C@H](F)Cl)c1ccc(-c2nccs2)cc1 [Example 100a]	> 7.00	–
C[C@@](C(=O)NC1CCC(F)(F)CC1)(c1cncnc1)N(C(=O)[C@H](F)Cl)c1ccc(-c2nccs2)cc1 [Example 100b]	6.00 to 7.00	–
C[C@](C(=O)NC1CCOCC1)(c1cncnc1)N(C(=O)[C@H](F)Cl)c1ccc(-c2nccs2)cc1 [Example 101a]	> 7.00	–
C[C@](C(=O)NC1CCC(F)(F)CC1)(c1cncc(F)c1)N(C(=O)[C@H](F)Cl)c1ccc(-c2nccs2)cc1 [Example 102a]	> 7.00	–
C[C@@](C(=O)NC1CCC(F)(F)CC1)(c1cncc(F)c1)N(C(=O)[C@H](F)Cl)c1ccc(-c2nccs2)cc1 [Example 102b]	6.00 to 7.00	–
C[C@](C(=O)NC1CCOCC1)(c1cncc(F)c1)N(C(=O)[C@H](F)Cl)c1ccc(-c2nccs2)cc1 [Example 103a]	> 7.00	–
C[C@@](C(=O)NC1CCOCC1)(c1cncc(F)c1)N(C(=O)[C@H](F)Cl)c1ccc(-c2nccs2)cc1 [Example 103b]	< 5.00	–
C[C@](C(=O)NC1CCC(F)(F)CC1)(c1cccnc1)N(C(=O)[C@H](F)Cl)c1ccc(SC(F)(F)F)cc1 [Example 104a]	> 7.00	–
C[C@@](C(=O)NC1CCC(F)(F)CC1)(c1cccnc1)N(C(=O)[C@H](F)Cl)c1ccc(SC(F)(F)F)cc1 [Example 104b]	5.00 to 6.00	–
C[C@](C(=O)NC1CCOCC1)(c1cccnc1)N(C(=O)[C@H](F)Cl)c1ccc(SC(F)(F)F)cc1 [Example 105a]	> 7.00	–
C[C@@](C(=O)NC1CCOCC1)(c1cccnc1)N(C(=O)[C@H](F)Cl)c1ccc(SC(F)(F)F)cc1 [Example 105b]	< 5.00	–
C[C@](C(=O)NC1CCC2(CC1)COC2)(c1cncnc1)N(C(=O)[C@H](F)Cl)c1ccc(OC(F)(F)F)cc1 [Example 107a]	> 7.00	–
C[C@](C(=O)NC1CCOCC1)(c1cncnc1)N(C(=O)[C@H](F)Cl)c1ccc(C(F)(F)C(F)(F)F)cc1 [Example 108a]	6.00 to 7.00	–
C[C@@](C(=O)NC1CCOCC1)(c1cncnc1)N(C(=O)[C@H](F)Cl)c1ccc(C(F)(F)C(F)(F)F)cc1 [Example 108b]	< 5.00	–
C[C@](C(=O)N[C@@H]1CC[C@H](NC(=O)C(F)(F)F)C1)(c1cncc(F)c1)N(C(=O)[C@H](F)Cl)c1ccc(OC(F)(F)F)cc1 [Example 109a]	–	pIC50 [1, 4]: > 7.00
C[C@@](C(=O)N[C@@H]1CC[C@H](NC(=O)C(F)(F)F)C1)(c1cncc(F)c1)N(C(=O)[C@H](F)Cl)c1ccc(OC(F)(F)F)cc1 [Example 109b]	–	pIC50 [1, 4]: 5.00 to 6.00
C[C@](C(=O)Nc1ccc(Cl)cc1F)(c1cncnc1)N(C(=O)[C@H](F)Cl)c1ccc(OC(F)(F)F)cc1 [Example 110a]	> 7.00	–
C[C@@](C(=O)Nc1ccc(Cl)cc1F)(c1cncnc1)N(C(=O)[C@H](F)Cl)c1ccc(OC(F)(F)F)cc1 [Example 110b]	5.00 to 6.00	–
C[C@](C(=O)NC1CCOCC1)(c1cccnc1)N(C(=O)[C@H](F)Cl)c1ccc(OC(F)(F)Cl)cc1 [Example 111a]	> 7.00	–
C[C@@](C(=O)NC1CCOCC1)(c1cccnc1)N(C(=O)[C@H](F)Cl)c1ccc(OC(F)(F)Cl)cc1 [Example 111b]	< 5.00	–
C[C@](C(=O)NC1CCC(F)(F)CC1)(c1cncnc1)N(C(=O)[C@H](F)Cl)c1cccc(OC(F)(F)F)c1 [Example 112a]	6.00 to 7.00	–
C[C@@](C(=O)NC1CCC(F)(F)CC1)(c1cncnc1)N(C(=O)[C@H](F)Cl)c1cccc(OC(F)(F)F)c1 [Example 112b]	< 5.00	–
C[C@](C(=O)NC1CCC(F)(F)CC1)(c1cncnc1)N(C(=O)[C@H](F)Cl)c1ccc2c(c1)OC(F)(F)O2 [Example 113a]	> 7.00	–
C[C@@](C(=O)NC1CCC(F)(F)CC1)(c1cncnc1)N(C(=O)[C@H](F)Cl)c1ccc2c(c1)OC(F)(F)O2 [Example 113b]	< 5.00	–
C[C@](C(=O)NC1CCOCC1)(c1cncnc1)N(C(=O)C(Cl)Cl)c1ccc(OC(F)(F)Cl)cc1 [Example 115a]	> 7.00	–
C[C@@](C(=O)NC1CCOCC1)(c1cncnc1)N(C(=O)C(Cl)Cl)c1ccc(OC(F)(F)Cl)cc1 [Example 115b]	5.00 to 6.00	–
